Experimental data reported in ChEMBL document CHEMBL2074245, “Valacyclovir: a substrate for the intestinal and renal peptide transporters PEPT1 and PEPT2” (Biochem Biophys Res Commun, 1998).

What was measured:
Type in all cases: functional, cell-based
[1] = biological target: T1, Solute carrier family 15 member 2 (Rattus norvegicus, UniProt Q63424); assay: TP_TRANSPORTER: inhibition of Gly-Sar uptake in SKPT cells
T1 sequence (Q63424 whole entry): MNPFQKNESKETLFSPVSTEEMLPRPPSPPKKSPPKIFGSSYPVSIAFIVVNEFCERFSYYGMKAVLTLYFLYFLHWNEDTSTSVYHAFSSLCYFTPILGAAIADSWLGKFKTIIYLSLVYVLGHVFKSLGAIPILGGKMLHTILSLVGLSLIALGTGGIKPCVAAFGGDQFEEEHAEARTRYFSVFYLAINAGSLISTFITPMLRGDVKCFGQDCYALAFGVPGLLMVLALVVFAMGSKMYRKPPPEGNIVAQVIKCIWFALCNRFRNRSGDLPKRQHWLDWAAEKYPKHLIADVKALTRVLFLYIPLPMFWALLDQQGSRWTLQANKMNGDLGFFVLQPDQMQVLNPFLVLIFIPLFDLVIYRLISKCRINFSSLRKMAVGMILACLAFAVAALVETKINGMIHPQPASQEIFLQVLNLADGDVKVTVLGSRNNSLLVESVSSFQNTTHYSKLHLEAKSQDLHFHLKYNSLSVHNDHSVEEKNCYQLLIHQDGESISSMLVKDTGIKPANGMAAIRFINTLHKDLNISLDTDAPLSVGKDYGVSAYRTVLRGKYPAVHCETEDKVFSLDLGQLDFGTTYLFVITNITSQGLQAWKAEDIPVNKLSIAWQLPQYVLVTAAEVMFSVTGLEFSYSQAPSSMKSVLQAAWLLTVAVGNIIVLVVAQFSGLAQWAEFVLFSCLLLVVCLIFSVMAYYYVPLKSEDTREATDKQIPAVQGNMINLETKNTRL

[2] = biological target: T2, Solute carrier family 15 member 1 (Homo sapiens, UniProt P46059); assay: TP_TRANSPORTER: inhibition of Gly-Sar uptake in Caco-2 cells
T2 sequence (P46059 whole entry): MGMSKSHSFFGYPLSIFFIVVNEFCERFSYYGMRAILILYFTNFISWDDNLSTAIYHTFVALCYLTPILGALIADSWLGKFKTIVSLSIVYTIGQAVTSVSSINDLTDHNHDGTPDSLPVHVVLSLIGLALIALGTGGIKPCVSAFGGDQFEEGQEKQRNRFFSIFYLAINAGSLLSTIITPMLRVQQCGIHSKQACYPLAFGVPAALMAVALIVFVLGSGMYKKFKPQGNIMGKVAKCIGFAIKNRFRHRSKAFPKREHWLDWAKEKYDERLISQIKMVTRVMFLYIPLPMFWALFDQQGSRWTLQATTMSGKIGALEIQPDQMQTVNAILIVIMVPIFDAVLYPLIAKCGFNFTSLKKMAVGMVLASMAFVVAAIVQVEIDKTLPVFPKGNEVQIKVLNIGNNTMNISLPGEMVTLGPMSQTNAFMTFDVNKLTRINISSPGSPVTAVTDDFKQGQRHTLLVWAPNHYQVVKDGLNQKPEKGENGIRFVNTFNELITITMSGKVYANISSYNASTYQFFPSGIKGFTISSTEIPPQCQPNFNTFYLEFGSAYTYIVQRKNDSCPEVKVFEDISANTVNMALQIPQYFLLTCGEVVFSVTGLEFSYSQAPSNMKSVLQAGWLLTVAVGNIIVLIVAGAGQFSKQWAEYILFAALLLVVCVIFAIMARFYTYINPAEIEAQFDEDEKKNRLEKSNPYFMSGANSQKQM

[3] = biological target: T2, Solute carrier family 15 member 1; assay: TP_TRANSPORTER: inhibition of Gly-Sar uptake in PEPT1-expressing HeLa cells
[4] = biological target: T1, Solute carrier family 15 member 2; assay: TP_TRANSPORTER: inhibition of Gly-Sar uptake in PEPT2-expressing HeLa cells
[5] = substrate: CN(CC(=O)O)C(=O)CN; assay: TP_TRANSPORTER: uptake in SKPT cells
[6] = substrate: CN(CC(=O)O)C(=O)CN; assay: TP_TRANSPORTER: uptake in PEPT2-expressing HeLa cells
[7] = substrate: CN(CC(=O)O)C(=O)CN; assay: TP_TRANSPORTER: uptake in PEPT1-expressing HeLa cells
[8] = substrate: CN(CC(=O)O)C(=O)CN; assay: TP_TRANSPORTER: uptake in Caco-2 cells

`CC(C)[C@H](N)C(=O)OCCOCn1cnc2c(=O)[nH]c(N)nc21` [VALACYCLOVIR] was tested, and the Ki [1] was 170 µM, the Ki [2] was 490 µM and the Ki [3] was 740 µM. It also gave a Ki [4] of 390 µM.

B1: Solute carrier family 15 member 2 (Rattus norvegicus), Q63424 (protein)
chain: T1 sequence (Q63424 whole entry)
B1 showed a Km [5] of 67 µM and a Km [6] of 70 µM.

B2: Solute carrier family 15 member 1 (Homo sapiens), P46059 (protein)
chain: T2 sequence (P46059 whole entry)
B2 was tested, and the Km [7] was 450 µM and the Km [8] was 510 µM.
